{"source": "patent US11401278B2", "about": "“Macrocyclic indole derivatives” (The Broad Institute, Inc., priority 2017, dated 2022)", "key": {"HMC-1-8": {"test_system": "HMC-1-8", "test": "Antiproliferation assay (Assay 7), HMC-1-8", "type": "cell-based", "conditions": "CellTiter-Glo, several values per example, read-out: Antiproli HMC-1-8 [M] IC50", "summary_of_the_method": "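Cells were treated with compound for 72 hours at 37° C in a humidified incubator, and viability was then read by CellTiter-Glo luminescence. A parallel reference plate was read at time zero (day 0) in the same way for baseline determination.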"}, "BCL-XL": {"target": "BCL-XL (Homo sapiens (Human), UniProt Q07817)", "sequence (Q07817 other isoform, or with tags, fused parts or gaps)": "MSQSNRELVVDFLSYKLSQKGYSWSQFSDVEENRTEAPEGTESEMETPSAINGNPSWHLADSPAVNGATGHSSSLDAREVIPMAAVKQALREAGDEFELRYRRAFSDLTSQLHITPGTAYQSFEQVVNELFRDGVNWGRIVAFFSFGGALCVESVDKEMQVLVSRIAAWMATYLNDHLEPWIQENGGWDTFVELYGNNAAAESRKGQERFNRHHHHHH", "test": "Protein-protein interaction assay BCL-XL/Bad BH3 peptide (BCL-XL assay, TR-FRET)", "type": "binding", "conditions": "His-BCL-XL / Bad BH3 peptide, median", "summary_of_the_method": "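His-tagged human BCL-XL (aa 1-212, 1 nM final) was preincubated 10 min at 22 °C with compound (11 concentrations, 0.1 nM–20 μM), then biotinylated Bad BH3 peptide (1 nM) and TR-FRET reagents were added. Incubation: 1 h at 22 °C, then overnight at 4 °C, pH 7 Tris buffer. IC50 from 4-parameter fit of 665/620 ratio.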"}}, "note": "Values joined by “and” are separate entries in the source; they are usually repeats but may differ in a detail not shown here. Equal values may be shown once. Where a name gives a salt, the structure may show the parent alone. Read-outs that look alike come from different tables or passages of the source."}
{"smiles": "CCc1c2c(nn1C)C(CCC1CCOCC1)N(C)S(=O)(=O)CCCn1c(C(=O)O)c(CCCOc3cccc4cc(F)ccc34)c3ccc(Cl)c-2c31", "note": "(racemic) [Example 59, (rac)-4-chloro-3-ethyl-7-{3-[(6-fluoro-1-naphthyl)oxy]propyl}-2,14-dimethyl-15-[2-(tetrahydro-2H-pyran-4-yl)ethyl]-11,12,14,15-tetrahydro-2H,10H-pyrazolo[3′,4′:4,5][1,2,8]thiadiazacycloundecino[6,7,8-hi]indole-8-carboxylic acid 13,13-dioxide (Racemate 2)]", "values": [{"measurement": "IC50", "setting": "HMC-1-8; 72 hours", "value": "6e-07", "unit": "M"}, {"measurement": "IC50", "setting": "BCL-XL", "value": 16, "unit": "µM"}]}
{"smiles": "Cc1c2c(nn1C)CN(C1CC1)S(=O)(=O)CCCn1c(C(=O)O)c(CCCOc3cccc4ccccc34)c3ccc(Cl)c-2c31", "note": "[Example 40, (rac)-4-chloro-14-cyclopropyl-2,3-dimethyl-7-[3-(1-naphthyloxy)propyl]-11,12,14,15-tetrahydro-2H,10H-pyrazolo[3′,4′:4,5][1,2,8]thiadiazacycloundecino[6,7,8-hi]indole-8-carboxylic acid 13,13-dioxide]", "values": [{"measurement": "IC50", "setting": "HMC-1-8; 72 hours", "value": "7.2e-06", "unit": "M"}, {"measurement": "IC50", "setting": "BCL-XL", "value": 19, "unit": "µM"}]}
{"smiles": "Cc1c2c(nn1C)CN(C1CC1)S(=O)(=O)CCCn1c(C(=O)O)c(CCCOc3cccc4cc(F)ccc34)c3ccc(Cl)c-2c31", "note": "(racemic) [Example 41, (rac)-4-chloro-14-cyclopropyl-7-{3-[(6-fluoro-1-naphthyl)oxy]propyl}-2,3-dimethyl-11,12,14,15-tetrahydro-2H,10H-pyrazolo[3′,4′:4,5][1,2,8]thiadiazacycloundecino[6,7,8-hi]indole-8-carboxylic acid 13,13-dioxide]", "values": [{"measurement": "IC50", "setting": "HMC-1-8; 72 hours", "value": "3.9e-06", "unit": "M"}, {"measurement": "IC50", "setting": "BCL-XL", "value": 19, "unit": "µM"}]}
{"smiles": "COc1ccc(CN2Cc3nn(C)c(C)c3-c3c(Cl)ccc4c(CCCOc5cccc6cc(F)ccc56)c(C(=O)O)n(c34)CCCS2(=O)=O)c(OC)c1", "note": "(racemic) [Example 49, (rac)-4-chloro-14-(2,4-dimethoxybenzyl)-7-{3-[(6-fluoro-1-naphthyl)oxy]propyl}-2,3-dimethyl-11,12,14,15-tetrahydro-2H,10H-pyrazolo[3′,4′:4,5][1,2,8]thiadiazacycloundecino[6,7,8-hi]indole-8-carboxylic acid 13,13-dioxide]", "values": [{"measurement": "IC50", "setting": "HMC-1-8; 72 h", "value": "7.8e-06", "unit": "M"}, {"measurement": "IC50", "setting": "HMC-1-8; 72 hours", "value": "5.8e-06", "unit": "M"}, {"measurement": "IC50", "setting": "BCL-XL", "value": "> 20", "unit": "µM"}]}
{"smiles": "Cc1c2c(nn1C)C(CCN1CCOCC1)N(C)S(=O)(=O)CCCn1c(C(=O)O)c(CCCOc3cccc4ccccc34)c3cccc-2c31", "note": "(single isomer, unassigned; enantiomer 2) [Example 46, 2,3,14-trimethyl-15-[2-(morpholin-4-yl)ethyl]-7-{3-[(naphthalen-1-yl)oxy]propyl}-13,13-dioxo-10,11,12,13,14,15-hexahydro-2H-13lambda^6-pyrazolo[3′,4′:4,5][1,2,8]thiadiazacycloundecino[6,7,8-hi]indole-8-carboxylic acid N-ethylethanamine Salt (Enantiomer 2)]", "values": [{"measurement": "IC50", "setting": "HMC-1-8; 72 hours", "value": "9.4e-06 M and 1.2e-05 M"}, {"measurement": "IC50", "setting": "BCL-XL", "value": "> 20", "unit": "µM"}]}
{"smiles": "Cc1c2c(nn1C)CN(C)S(=O)(=O)CCCn1c(C(=O)O)c(CCCOc3cccc4cc(F)ccc34)c3ccc(F)c-2c31", "note": "(single isomer, unassigned; enantiomer 1) [Example 38, (−)-4-fluoro-7-{3-[(6-fluoronaphthalen-1-yl)oxy]propyl}-2,3,14-trimethyl-13,13-dioxo-10,11,12,13,14,15-hexahydro-2H-13lambda^6-pyrazolo[3′,4′:4,5][1,2,8]thiadiazacycloundecino-[6,7,8-hi]indole-8-carboxylic acid (Enantiomer 1)]", "values": [{"measurement": "IC50", "setting": "HMC-1-8; 72 hours", "value": "2.7e-05", "unit": "M"}, {"measurement": "IC50", "setting": "BCL-XL", "value": "> 20", "unit": "µM"}]}
{"smiles": "Cc1c2c(nn1C)C(CCN1CCOCC1)N(C)S(=O)(=O)CCCn1c(C(=O)O)c(CCCOc3cccc4ccccc34)c3cccc-2c31", "note": "(single isomer, unassigned; enantiomer 1) [Example 45, 2,3,14-trimethyl-15-[2-(morpholin-4-yl)ethyl]-7-{3-[(naphthalen-1-yl)oxy]propyl}-13,13-dioxo-10,11,12,13,14,15-hexahydro-2H-13lambda^6-pyrazolo[3′,4′:4,5][1,2,8]thiadiazacycloundecino[6,7,8-hi]indole-8-carboxylic acid N-ethylethanamine Salt (Enantiomer 1)]", "values": [{"measurement": "IC50", "setting": "HMC-1-8; 72 hours", "value": "> 3.3e-05", "unit": "M"}, {"measurement": "IC50", "setting": "BCL-XL", "value": 18, "unit": "µM"}]}
{"smiles": "Cc1c2c(nn1C)C(CCN1CCOCC1)N(C)S(=O)(=O)CCCn1c(C(=O)O)c(CCCOc3cccc4cc(F)ccc34)c3ccc(Cl)c-2c31", "note": "(racemic) [Example 65, (rac)-4-chloro-7-{3-[(6-fluoronaphthalen-1-yl)oxy]propyl}-2,3,14-trimethyl-15-(rac)-[2-(morpholin-4-yl)ethyl]-13,13-dioxo-10,11,12,13,14,15-hexahydro-2H-13lambda^6-pyrazolo[3′,4′:4,5][1,2,8]thiadiazacycloundecino[6,7,8-hi]indole-8-carboxylic acid (Mixture of Stereoisomers)]", "values": [{"measurement": "IC50", "setting": "HMC-1-8; 72 h", "value": "1.5e-06", "unit": "M"}, {"measurement": "IC50", "setting": "BCL-XL", "value": "> 20", "unit": "µM"}]}
{"smiles": "CCc1c2c(nn1C)C(CCC1CCOCC1)N(C)S(=O)(=O)CCCn1c(C(=O)O)c(CCCOc3cccc4cc(F)ccc34)c3ccc(Cl)c-2c31", "note": "(single isomer, unassigned; enantiomer 2) [Example 62, (−)-4-chloro-3-ethyl-7-{3-[(6-fluoronaphthalen-1-yl)oxy]propyl}-2,14-dimethyl-15-[2-(oxan-4-yl)ethyl]-13,13-dioxo-10,11,12,13,14,15-hexahydro-2H-13lambda^6-pyrazolo[3′,4′:4,5][1,2,8]thiadiazacycloundecino[6,7,8-hi]indole-8-carboxylic acid (Enantiomer 2)]", "values": [{"measurement": "IC50", "setting": "HMC-1-8; 72 hours", "value": "2.1e-05", "unit": "M"}, {"measurement": "IC50", "setting": "BCL-XL", "value": 18, "unit": "µM"}]}
{"smiles": "CCc1c2c(nn1C)C(CCC1CCOCC1)N(C)S(=O)(=O)CCCn1c(C(=O)O)c(CCCOc3cccc4cc(F)ccc34)c3ccc(Cl)c-2c31", "note": "(racemic) [Example 60, (rac)-4-chloro-3-ethyl-7-{3-[(6-fluoro-1-naphthyl)oxy]propyl}-2,14-dimethyl-15-[2-(tetrahydro-2H-pyran-4-yl)ethyl]-11,12,14,15-tetrahydro-2H,10H-pyrazolo[3′,4′:4,5][1,2,8]thiadiazacycloundecino[6,7,8-hi]indole-8-carboxylic acid 13,13-dioxide (Racemate 1)]", "values": [{"measurement": "IC50", "setting": "HMC-1-8; 72 hours", "value": "1.9e-07", "unit": "M"}, {"measurement": "IC50", "setting": "BCL-XL", "value": "> 20", "unit": "µM"}]}
{"smiles": "CCc1c2c(nn1C)CN(C)S(=O)(=O)CCCn1c(C(=O)O)c(CCCOc3cccc4cc(F)ccc34)c3ccc(Cl)c-2c31", "note": "(single isomer, unassigned; enantiomer 2) [Example 37, (−)-4-chloro-3-ethyl-7-{3-[(6-fluoronaphthalen-1-yl)oxy]propyl}-2,14-dimethyl-13,13-dioxo-10,11,12,13,14,15-hexahydro-2H-13lambda^6-pyrazolo[3′,4′:4,5][1,2,8]thiadiazacycloundecino-[6,7,8-hi]indole-8-carboxylic acid (Enantiomer 2)]", "values": [{"measurement": "IC50", "setting": "HMC-1-8; 72 hours", "value": "1.9e-05", "unit": "M"}, {"measurement": "IC50", "setting": "BCL-XL", "value": 18, "unit": "µM"}]}
{"smiles": "Cc1c2c(nn1C)C(CCN1CCOCC1)N(C)S(=O)(=O)CCCn1c(C(=O)O)c(CCCOc3cccc4ccccc34)c3cccc-2c31", "note": "(racemic) [Example 44, (rac)-2,3,14-trimethyl-15-[2-(rac)-(morpholin-4-yl)ethyl]-7-[3-(1-naphthyloxy)propyl]-11,12,14,15-tetrahydro-2H,10H-pyrazolo[3′,4′:4,5][1,2,8]thiadiazacycloundecino[6,7,8-hi]indole-8-carboxylic acid 13,13-dioxide (Mixture of Stereoisomers)]", "values": [{"measurement": "IC50", "setting": "HMC-1-8; 72 h", "value": "1.2e-05", "unit": "M"}, {"measurement": "IC50", "setting": "BCL-XL", "value": "> 20", "unit": "µM"}]}
{"smiles": "Cc1c2c(nn1C)C(CCN1CCOCC1)N(C)S(=O)(=O)CCCn1c(C(=O)O)c(CCCOc3cccc4cc(F)ccc34)c3ccc(Cl)c-2c31", "note": "(racemic) [Example 48, (rac)-4-chloro-7-{3-[(6-fluoro-1-naphthyl)oxy]propyl}-2,3,14-trimethyl-15-(rac)-[2-(morpholin-4-yl)ethyl]-11,12,14,15-tetrahydro-2H,10H-pyrazolo[3′,4′:4,5][1,2,8]thiadiazacycloundecino[6,7,8-hi]indole-8-carboxylic acid 13,13-dioxide (Mixture of Stereoisomers)]", "values": [{"measurement": "IC50", "setting": "HMC-1-8; 72 hours", "value": "9.8e-07 M and 9.3e-07 M"}, {"measurement": "IC50", "setting": "BCL-XL", "value": "> 20", "unit": "µM"}]}
{"smiles": "Cc1c2c(nn1C)CNS(=O)(=O)CCCn1c(C(=O)O)c(CCCOc3cccc4cc(F)ccc34)c3ccc(Cl)c-2c31", "note": "(racemic) [Example 50, (rac)-4-chloro-7-{3-[(6-fluoro-1-naphthyl)oxy]propyl}-2,3-dimethyl-11,12,14,15-tetrahydro-2H,10H-pyrazolo[3′,4′:4,5][1,2,8]thiadiazacycloundecino[6,7,8-hi]indole-8-carboxylic acid 13,13-dioxide]", "values": [{"measurement": "IC50", "setting": "HMC-1-8; 72 h", "value": "3e-05", "unit": "M"}, {"measurement": "IC50", "setting": "BCL-XL", "value": "> 20", "unit": "µM"}]}
{"smiles": "CCc1c2c(nn1C)CN(C1CC1)S(=O)(=O)CCCn1c(C(=O)O)c(CCCOc3cccc4cc(F)ccc34)c3ccc(Cl)c-2c31", "note": "(racemic) [Example 53, (rac)-4-chloro-14-cyclopropyl-3-ethyl-7-{3-[(6-fluoro-1-naphthyl)oxy]propyl}-2-methyl-11,12,14,15-tetrahydro-2H,10H-pyrazolo[3′,4′:4,5][1,2,8]thiadiazacycloundecino[6,7,8-hi]indole-8-carboxylic acid 13,13-dioxide]", "values": [{"measurement": "IC50", "setting": "HMC-1-8; 72 hours", "value": "5e-06 M and 6.4e-06 M and 7.7e-06 M"}, {"measurement": "IC50", "setting": "BCL-XL", "value": 16, "unit": "µM"}]}
{"smiles": "CCc1c2c(nn1C)C(CCC1CCOCC1)N(C)S(=O)(=O)CCCn1c(C(=O)O)c(CCCOc3cccc4cc(F)ccc34)c3ccc(Cl)c-2c31", "note": "(single isomer, unassigned; enantiomer 4) [Example 64, (−)-4-chloro-3-ethyl-7-{3-[(6-fluoronaphthalen-1-yl)oxy]propyl}-2,14-dimethyl-15-[2-(oxan-4-yl)ethyl]-13,13-dioxo-10,11,12,13,14,15-hexahydro-2H-13lambda^6-pyrazolo[3′,4′:4,5][1,2,8]thiadiazacycloundecino[6,7,8-hi]indole-8-carboxylic acid (Enantiomer 4)]", "values": [{"measurement": "IC50", "setting": "HMC-1-8; 72 hours", "value": "1.1e-05", "unit": "M"}, {"measurement": "IC50", "setting": "BCL-XL", "value": "> 20", "unit": "µM"}]}
